# Reference: patent publication US10131652B2, “Pyrimidinyloxy benzene derivatives as herbicides” (E. I. DU PONT DE NEMOURS AND COMPANY, priority 2014, dated 2018)
# Where two headings read alike, the source gives them in different places.
# Tests used:
# Experiment in all cases: Test E pre-/postemergence plant response
# Type in all cases: in vivo
# [1] = test system: blackgrass (Alopecurus myosuroides); settings: scale 0 to 100, read-out: Plant response rating, Blackgrass; for pest or weed control at 16 g/ha: 16 g ai/ha; for pest or weed control at 31 g/ha: 31 g ai/ha; for pest or weed control at 62 g/ha: 62 g ai/ha; for pest or weed control at 125 g/ha: 125 g ai/ha
# Outline: (§1)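 Pre-emergence: seeds sown in silt loam soil and sprayed with test chemicals in a non-phytotoxic solvent/surfactant mix. Post-emergence: plants at 2–18 cm (1- to 4-leaf stage) in peat/vermiculite medium treated with the same formulation. Visual rating versus controls after 7–21 days, 0 (no effect) to 100 (complete control).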
# [2] = test system: field violet (Viola arvensis); settings: scale 0 to 100, read-out: Plant response rating, Field Violet; for pest or weed control at 31 g/ha: 31 g ai/ha; for pest or weed control at 125 g/ha: 125 g ai/ha
# Outline: as §1
# [3] = test system: spring wheat (Triticum aestivum); settings: post-emergence, Postemergence, scale 0 to 100, read-out: Plant response rating, Wheat, Spring
# Outline: as §1
# [4] = test system: canarygrass (Phalaris minor); settings: scale 0 to 100, read-out: Plant response rating, Canarygrass; for pest or weed control at 16 g/ha: 16 g ai/ha; for pest or weed control at 31 g/ha: 31 g ai/ha; for pest or weed control at 62 g/ha: 62 g ai/ha; for pest or weed control at 125 g/ha: 125 g ai/ha
# Outline: as §1
# [5] = test system: deadnettle (henbit deadnettle, Lamium amplexicaule); settings: scale 0 to 100, read-out: Plant response rating, Deadnettle; for pest or weed control at 16 g/ha: 16 g ai/ha; for pest or weed control at 31 g/ha: 31 g ai/ha; for pest or weed control at 62 g/ha: 62 g ai/ha; for pest or weed control at 125 g/ha: 125 g ai/ha
# Outline: as §1
# [6] = test system: winter wheat (Triticum aestivum); settings: post-emergence, Postemergence, scale 0 to 100, read-out: Plant response rating, Wheat, Winter
# Outline: as §1
# [7] = test system: speedwell (bird's-eye speedwell, Veronica persica); settings: scale 0 to 100, read-out: Plant response rating, Speedwell; for pest or weed control at 16 g/ha: 16 g ai/ha; for pest or weed control at 62 g/ha: 62 g ai/ha; for pest or weed control at 125 g/ha: 125 g ai/ha
# Outline: as §1
# [8] = test system: lambsquarters (Chenopodium album); settings: scale 0 to 100, read-out: Plant response rating, Lambsquarters; for pest or weed control at 16 g/ha: 16 g ai/ha; for pest or weed control at 31 g/ha: 31 g ai/ha; for pest or weed control at 62 g/ha: 62 g ai/ha; for pest or weed control at 125 g/ha: 125 g ai/ha
# Outline: as §1
# [9] = test system: spring barley (Hordeum vulgare); settings: post-emergence, Postemergence
# Outline: as §1
# [10] = test system: field poppy (Papaver rhoeas); settings: scale 0 to 100, read-out: Plant response rating, Field Poppy; for pest or weed control at 16 g/ha: 16 g ai/ha; for pest or weed control at 31 g/ha: 31 g ai/ha; for pest or weed control at 62 g/ha: 62 g ai/ha; for pest or weed control at 125 g/ha: 125 g ai/ha
# Outline: as §1
# [11] = test system: wild oat (Avena fatua); settings: scale 0 to 100, read-out: Plant response rating, Oat, Wild; for pest or weed control at 16 g/ha: 16 g ai/ha; for pest or weed control at 31 g/ha: 31 g ai/ha; for pest or weed control at 62 g/ha: 62 g ai/ha; for pest or weed control at 125 g/ha: 125 g ai/ha
# Outline: as §1
smiles,measurement,setting,value
"FC(F)(F)c1cc(-c2ccccc2Oc2ncc(Cl)cn2)no1 [Compound 200, 5-chloro-2-[2-[5-(trifluoromethyl)-3-isoxazolyl]phenoxy]pyrimidine]",pest or weed control at 16 g/ha,"[1]; post-emergence, Postemergence",15%
same,pest or weed control at 31 g/ha,"[1]; post-emergence, Postemergence",35%
same,pest or weed control at 62 g/ha,"[1]; post-emergence, Postemergence",55%
same,pest or weed control at 125 g/ha,"[1]; post-emergence, Postemergence",75%
same,pest or weed control at 16 g/ha,"[1]; pre-emergence, Preemergence",25%
same,pest or weed control at 31 g/ha,"[1]; pre-emergence, Preemergence",75%
same,pest or weed control at 62 g/ha,"[1]; pre-emergence, Preemergence",90%
same,pest or weed control at 125 g/ha,"[1]; pre-emergence, Preemergence",100%
same,pest or weed control at 16 g/ha,"[2]; post-emergence, 16 g ai/ha, Postemergence",70%
same,pest or weed control at 31 g/ha,"[2]; post-emergence, Postemergence",80%
same,pest or weed control at 62 g/ha,"[2]; post-emergence, 62 g ai/ha, Postemergence",75%
same,pest or weed control at 125 g/ha,"[2]; post-emergence, Postemergence",95%
same,pest or weed control at 31 g/ha,"[2]; pre-emergence, Preemergence",50%
same,pest or weed control at 125 g/ha,"[2]; pre-emergence, Preemergence",100%
same,plant injury at 16 g/ha,[3]; 16 g ai/ha,5%
same,plant injury at 31 g/ha,[3]; 31 g ai/ha,10%
same,plant injury at 62 g/ha,[3]; 62 g ai/ha,20%
same,plant injury at 125 g/ha,[3]; 125 g ai/ha,35%
same,pest or weed control at 16 g/ha,"[4]; post-emergence, Postemergence",10%
same,pest or weed control at 31 g/ha,"[4]; post-emergence, Postemergence",35%
same,pest or weed control at 62 g/ha,"[4]; post-emergence, Postemergence",45%
same,pest or weed control at 125 g/ha,"[4]; post-emergence, Postemergence",60%
same,pest or weed control at 16 g/ha,"[4]; pre-emergence, Preemergence",10%
same,pest or weed control at 31 g/ha,"[4]; pre-emergence, Preemergence",55%
same,pest or weed control at 62 g/ha,"[4]; pre-emergence, Preemergence",100%
same,pest or weed control at 125 g/ha,"[4]; pre-emergence, Preemergence",100%
same,pest or weed control at 16 g/ha,"[5]; post-emergence, Postemergence",50%
same,pest or weed control at 31 g/ha,"[5]; post-emergence, Postemergence",60%
same,pest or weed control at 62 g/ha,"[5]; post-emergence, Postemergence",80%
same,pest or weed control at 125 g/ha,"[5]; post-emergence, Postemergence",90%
same,pest or weed control at 16 g/ha,"[5]; pre-emergence, Preemergence",60%
same,pest or weed control at 31 g/ha,"[5]; pre-emergence, Preemergence",90%
same,pest or weed control at 62 g/ha,"[5]; pre-emergence, Preemergence",100%
same,pest or weed control at 125 g/ha,"[5]; pre-emergence, Preemergence",100%
same,plant injury at 16 g/ha,[6]; 16 g ai/ha,0%
same,plant injury at 31 g/ha,[6]; 31 g ai/ha,5%
same,plant injury at 62 g/ha,[6]; 62 g ai/ha,15%
same,plant injury at 125 g/ha,[6]; 125 g ai/ha,25%
same,pest or weed control at 16 g/ha,"[7]; post-emergence, Postemergence",70%
same,pest or weed control at 31 g/ha,"[7]; post-emergence, 31 g ai/ha, Postemergence",100%
same,pest or weed control at 62 g/ha,"[7]; post-emergence, Postemergence",100%
same,pest or weed control at 125 g/ha,"[7]; post-emergence, Postemergence",100%
same,pest or weed control at 16 g/ha,"[7]; pre-emergence, Preemergence",100%
same,pest or weed control at 62 g/ha,"[7]; pre-emergence, Preemergence",100%
same,pest or weed control at 125 g/ha,"[7]; pre-emergence, Preemergence",100%
same,pest or weed control at 16 g/ha,"[8]; post-emergence, Postemergence",75%
same,pest or weed control at 31 g/ha,"[8]; post-emergence, Postemergence",85%
same,pest or weed control at 62 g/ha,"[8]; post-emergence, Postemergence",90%
same,pest or weed control at 125 g/ha,"[8]; post-emergence, Postemergence",95%
same,pest or weed control at 16 g/ha,"[8]; pre-emergence, Preemergence",10%
same,pest or weed control at 31 g/ha,"[8]; pre-emergence, Preemergence",85%
same,pest or weed control at 62 g/ha,"[8]; pre-emergence, Preemergence",100%
same,pest or weed control at 125 g/ha,"[8]; pre-emergence, Preemergence",100%
same,plant injury at 16 g/ha,"[9]; 16 g ai/ha, scale 0 to 100, read-out: Plant response rating, Barley, Spring",10%
same,plant injury at 31 g/ha,"[9]; 31 g ai/ha, scale 0 to 100, read-out: Plant response rating, Barley, Spring",15%
same,plant injury at 62 g/ha,"[9]; 62 g ai/ha, scale 0 to 100, read-out: Plant response rating, Barley, Spring",25%
same,plant injury at 125 g/ha,"[9]; 125 g ai/ha, scale 0 to 100 (0 no effect, 100 complete control), read-out: Plant response rating, Barley, Spring",35%
same,pest or weed control at 16 g/ha,"[10]; post-emergence, Postemergence",75%
same,pest or weed control at 31 g/ha,"[10]; post-emergence, Postemergence",80%
same,pest or weed control at 62 g/ha,"[10]; post-emergence, Postemergence",100%
same,pest or weed control at 125 g/ha,"[10]; post-emergence, Postemergence",100%
same,pest or weed control at 16 g/ha,"[10]; pre-emergence, Preemergence",80%
same,pest or weed control at 31 g/ha,"[10]; pre-emergence, Preemergence",90%
same,pest or weed control at 62 g/ha,"[10]; pre-emergence, Preemergence",95%
same,pest or weed control at 125 g/ha,"[10]; pre-emergence, Preemergence",95%
same,pest or weed control at 16 g/ha,"[11]; post-emergence, Postemergence",10%
same,pest or weed control at 31 g/ha,"[11]; post-emergence, Postemergence",20%
same,pest or weed control at 62 g/ha,"[11]; post-emergence, Postemergence",30%
same,pest or weed control at 125 g/ha,"[11]; post-emergence, Postemergence",35%
same,pest or weed control at 16 g/ha,"[11]; pre-emergence, Preemergence",0%
same,pest or weed control at 31 g/ha,"[11]; pre-emergence, Preemergence",0%
same,pest or weed control at 62 g/ha,"[11]; pre-emergence, Preemergence",30%
same,pest or weed control at 125 g/ha,"[11]; pre-emergence, Preemergence",75%
